Data set [1] in a line: Elution of DAA-I from stents coated with increasing amounts of TEOS. The format is physicochemical. Conditions: 0.1-0.5M TEOS with constant DAA-I 1.25 mg/mL; effect of increasing TEOS to drug molar ratio; 9 mm stents; FIGS. 5A-5B. As for the experimental part: To explore the effects of increasing the amount of TEOS on the rate of elution of DAA-I, increasing amounts, from 0.1-0.5M of TEOS were added to a constant amount of DAA-I (1.25 mg/mL) according to the methods and protocols described above. The stents (9 mm, n=4) were sprayed with each of the solutions as described above, weighed, and the amounts DAA-I eluted over a 24 hour period were compared.

The conditions of data set [2]: pH 5.
Procedure: Referring to FIG. 4, elution of DAA-I from the TEOS coated stents was measured by analyzing the amount of DAA-I found in 0.1% solutol in ammonium acetate buffer, pH 5.0, as a function of time, when the stents were incubated in this medium at 37° C. The amount of DAA-I was determined by integrating the DAA-I peak in high performance liquid chromatography (HPLC) profiles using a Altima C-8 column (Altech, Chicago Ill.) and comparison to standard curves.

The results in this text go back to patent publication US8097269B2, “Bioactive material delivery systems comprising sol-gel compositions” (Celonova Biosciences, Inc., priority 2004, dated 2012).

For the substance des-aspartate angiotensin I [DAA-I], the “rate of release of the drug into aqueous solution” value in data set [1] is given as “significantly delayed the rate of release”. Moreover, in data set [2], the “rate of DAA-I elution” value is given as “slow the rate of DAA-I elution”.
